Measured values as given in patent publication US20260062422A1 (Halda Therapeutics OpCo, Inc., priority 2022, published 2026).

Experiments:
T47D cells = assay: Cellular growth inhibition assay for T47D cells, CellTiter-Glo; type: cell-based, human; settings: Homo sapiens, T47D, 72 h, 72 hours treatment, CellTiter-Glo 2.0 cell viability
In short: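 Growth inhibition as GI50, fitted with four parameters to CellTiter-Glo luminescence after 72 h of compound exposure (0.5% DMSO). Cells were T47D, grown in insulin-supplemented (0.2 units/mL) DMEM with 10% FBS and treated one day post-seeding.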

[1] = test system: T-Rex 293 cell line SC3 cells lacking increased expression of androgen receptor protein; assay: Cellular growth inhibition, T-Rex 293 SC3 cells without doxycycline, CellTiter-Glo; type: cell-based; settings: 72 h, T-Rex 293 SC3 cells not exposed to doxycycline, CellTiter-Glo 2.0
In short: (§1)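 Doxycycline-inducible androgen receptor T-Rex 293 clone SC3, seeded at 2500/well in phenol red-free DMEM with 10% charcoal-dextran FBS, without doxycycline or with 10 ng/mL to induce receptor. Compound added after 24 h (0.5% DMSO), 72 h at 37 °C; CellTiter-Glo 2.0 luminescence, GI50 by four-parameter fit.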

[2] = test system: T-Rex 293 cell line SC3 cells having increased expression of androgen receptor protein due to exposure to doxycycline; assay: Cellular growth inhibition, T-Rex 293 SC3 cells with doxycycline (androgen receptor induced), CellTiter-Glo; type: cell-based; settings: 72 h, T-Rex 293 SC3 cells with 10 ng/mL doxycycline (increased androgen receptor expression)
In short: as §1

| SMILES | GI50 (T47D cells) [nM] | GI50 [1] [nM] | GI50 [2] [nM] |
| --- | --- | --- | --- |
| Cc1sc2c(c1C)C(c1ccc(Cl)cc1)=N[C@@H](CC(=O)NCCN(C)c1ncc(C(=O)N[C@H]3C(C)(C)[C@H](Oc4ccc(C#N)c(Cl)c4)C3(C)C)cn1)c1nnc(C)n1-2 [Compound I-1, N-[3-(3-chloro-4-cyano-phenoxy)-2,2,4,4-tetramethyl-cyclobutyl]-2-[2-[[2-[(9S)-7-(4-chlorophenyl)-4,5,13-trimethyl-3-thia-1,8,11,12-tetrazatricyclo[8.3.0.02,6]trideca-2(6),4,7,10,12-pentaen-9-yl]acetyl]amino]ethyl-methyl-amino]pyrimidine-5-carboxamide] | < 500 | 1500 to 3000 | 1500 to 3000 |
| Cc1sc2c(c1C)C(c1ccc(Cl)cc1)=N[C@@H](CC(=O)NCCOCCOCCOC1CCN(c3ncc(C(=O)N[C@H]4C(C)(C)[C@H](Oc5ccc(C#N)c(Cl)c5)C4(C)C)cn3)CC1)c1nnc(C)n1-2 [Compound I-7] | < 500 | 500 to 1500 | < 500 |
| Cc1sc2c(c1C)C(c1ccc(Cl)cc1)=N[C@@H](CC(=O)NCCOCCOCCOCCOCCOC1CCN(c3ncc(C(=O)N[C@H]4C(C)(C)[C@H](Oc5ccc(C#N)c(Cl)c5)C4(C)C)cn3)CC1)c1nnc(C)n1-2 [Compound I-8] | 500 to 1500 | 1500 to 3000 | < 500 |
| Cc1sc2c(c1C)C(c1ccc(Cl)cc1)=N[C@H](CC(=O)NCCOCCOCCOCCOCCOC1CCN(c3ncc(C(=O)N[C@H]4C(C)(C)[C@H](Oc5ccc(C#N)c(Cl)c5)C4(C)C)cn3)CC1)c1nnc(C)n1-2 [Compound I-14] | 500 to 1500 | > 3000 | > 3000 |
| Cc1sc2c(c1C)C(c1ccc(Cl)cc1)=N[C@@H](CC(=O)NCCCN1CCN(CC3CCN(c4ncc(C(=O)N[C@H]5C(C)(C)[C@H](Oc6ccc(C#N)c(Cl)c6)C5(C)C)cn4)CC3)CC1)c1nnc(C)n1-2 [Compound I-36, N-((1r,3r)-3-(3-chloro-4-cyanophenoxy)-2,2,4,4-tetramethylcyclobutyl)-2-(4-((4-(3-(2-((S)-4-(4-chlorophenyl)-2,3,9-trimethyl-6H-thieno[3,2-f][1,2,4]triazolo[4,3-a][1,4]diazepin-6-yl)acetamido)propyl)piperazin-1-yl)methyl)piperidin-1-yl)pyrimidine-5-carboxamide] | < 500 | 500 to 1500 | 500 to 1500 |
| Cc1sc2c(c1C)C(c1ccc(OCCOC3CCN(c4ncc(C(=O)N[C@H]5C(C)(C)[C@H](Oc6ccc(C#N)c(Cl)c6)C5(C)C)cn4)CC3)cc1)=N[C@@H](CC(=O)O)c1nnc(C)n1-2 [Compound I-38] | 500 to 1500 | > 3000 | 500 to 1500 |
| Cc1sc2c(c1C)C(c1cccc(OCCOC3CCN(c4ncc(C(=O)N[C@H]5C(C)(C)[C@H](Oc6ccc(C#N)c(Cl)c6)C5(C)C)cn4)CC3)c1)=N[C@@H](CC(=O)O)c1nnc(C)n1-2 [Compound I-41] | 1500 to 3000 | > 3000 | 500 to 1500 |
| CCNC(=O)C[C@@H]1N=C(c2ccc(OCCOCCOC3CCN(c4ncc(C(=O)N[C@H]5C(C)(C)[C@H](Oc6ccc(C#N)c(Cl)c6)C5(C)C)cn4)CC3)cc2)c2c(sc(C)c2C)-n2c(C)nnc21 [Compound I-44] | 500 to 1500 | 500 to 1500 | < 500 |
| CCNC(=O)C[C@@H]1N=C(c2cccc(OCCOC3CCN(c4ncc(C(=O)N[C@H]5C(C)(C)[C@H](Oc6ccc(C#N)c(Cl)c6)C5(C)C)cn4)CC3)c2)c2c(sc(C)c2C)-n2c(C)nnc21 [Compound I-46, N-((1r,3r)-3-(3-chloro-4-cyanophenoxy)-2,2,4,4-tetramethylcyclobutyl)-2-(4-(2-(3-((S)-6-(2-(ethylamino)-2-oxoethyl)-2,3,9-trimethyl-6H-thieno[3,2-f][1,2,4]triazolo[4,3-a][1,4]diazepin-4-yl)phenoxy)ethoxy)piperidin-1-yl)pyrimidine-5-carboxamide] | 500 to 1500 | 500 to 1500 | < 500 |
| Cc1sc2c(c1C)C(c1ccc(OC3CC4(CCN(c5ncc(C(=O)N[C@H]6C(C)(C)[C@H](Oc7ccc(C#N)c(Cl)c7)C6(C)C)cn5)CC4)C3)cc1)=N[C@@H](Cc1ncco1)c1nnc(C)n1-2 [Compound I-49, N-[3-(3-chloro-4-cyano-phenoxy)-2,2,4,4-tetramethyl-cyclobutyl]-2-[2-[4-[(9S)-4,5,13-trimethyl-9-(oxazol-2-ylmethyl)-3-thia-1,8,11,12-tetrazatricyclo[8.3.0.02,6]trideca-2(6),4,7,10,12-pentaen-7-yl]phenoxy]-7-azaspiro[3.5]nonan-7-yl]pyrimidine-5-carboxamide] | < 500 | < 500 | < 500 |
| CCNC(=O)C[C@@H]1N=C(c2ccc(C#CCN3CCN(c4ncc(C(=O)N[C@H]5C(C)(C)[C@H](Oc6ccc(C#N)c(Cl)c6)C5(C)C)cn4)CC3)cc2)c2c(sc(C)c2C)-n2c(C)nnc21 [Compound I-54, N-[3-(3-chloro-4-cyano-phenoxy)-2,2,4,4-tetramethyl-cyclobutyl]-2-[4-[3-[4-[(9S)-9-[2-(ethylamino)-2-oxo-ethyl]-4,5,13-trimethyl-3-thia-1,8,11,12-tetrazatricyclo[8.3.0.02,6]trideca-2(6),4,7,10,12-pentaen-7-yl]phenyl]prop-2-ynyl]piperazin-1-yl]pyrimidine-5-carboxamide] | 500 to 1500 | 500 to 1500 | < 500 |
| Cc1sc2c(c1C)C(c1ccc(C#CCN3CCN(c4ncc(C(=O)N[C@H]5C(C)(C)[C@H](Oc6ccc(C#N)c(Cl)c6)C5(C)C)cn4)CC3)cc1)=N[C@@H](CC(=O)OC(C)(C)C)c1nnc(C)n1-2 [Compound I-55] | > 3000 | > 3000 | < 500 |
| CCNC(=O)C[C@@H]1N=C(c2ccc(OCCOC3CCN(c4ncc(C(=O)N[C@H]5C(C)(C)[C@H](Oc6ccc(C#N)c(Cl)c6)C5(C)C)cn4)CC3)cc2)c2c(sc(C)c2C)-n2c(C)nnc21 [Compound I-60, N-((1r,3r)-3-(3-chloro-4-cyanophenoxy)-2,2,4,4-tetramethylcyclobutyl)-2-(4-(2-(4-((S)-6-(2-(ethylamino)-2-oxoethyl)-2,3,9-trimethyl-6H-thieno[3,2-f][1,2,4]triazolo[4,3-a][1,4]diazepin-4-yl)phenoxy)ethoxy)piperidin-1-yl)pyrimidine-5-carboxamide] | 500 to 1500 | < 500 | < 500 |
| CCNC(=O)C[C@@H]1N=C(c2ccc(OC3CCN(c4ncc(C(=O)N[C@H]5C(C)(C)[C@H](Oc6ccc(C#N)c(Cl)c6)C5(C)C)cn4)CC3)cc2)c2c(sc(C)c2C)-n2c(C)nnc21 [Compound I-61] | 500 to 1500 | 1500 to 3000 | < 500 |
| CCN(C)C(=O)C[C@@H]1N=C(c2ccc(OCCOC3CCN(c4ncc(C(=O)N[C@H]5C(C)(C)[C@H](Oc6ccc(C#N)c(Cl)c6)C5(C)C)cn4)CC3)cc2)c2c(sc(C)c2C)-n2c(C)nnc21 [Compound I-66] | 500 to 1500 | < 500 | < 500 |
| CCNC(=O)C[C@@H]1N=C(c2ccc(OCC3CN(c4ncc(C(=O)N[C@H]5C(C)(C)[C@H](Oc6ccc(C#N)c(Cl)c6)C5(C)C)cn4)C3)cc2)c2c(sc(C)c2C)-n2c(C)nnc21 [Compound I-71] | < 500 | 500 to 1500 | < 500 |
| CCNC(=O)C[C@@H]1N=C(c2ccc(OCCOC3CCN(c4ncc(C(=O)N[C@H]5C(C)(C)[C@H](Oc6ccc(C#N)c(Cl)c6)C5(C)C)cn4)CC3)c(F)c2F)c2c(sc(C)c2C)-n2c(C)nnc21 [Compound I-73] | 500 to 1500 | 500 to 1500 | < 500 |
| CCNC(=O)C[C@@H]1N=C(c2ccc(OCCOC3CCN(c4ncc(C(=O)N[C@H]5C(C)(C)[C@H](Oc6ccc(C#N)c(Cl)c6)C5(C)C)cn4)CC3)cc2F)c2c(sc(C)c2C)-n2c(C)nnc21 [Compound I-75] | < 500 | 500 to 1500 | < 500 |
| CCNC(=O)C[C@@H]1N=C(c2ccc(OCCOC3CCN(c4ncc(C(=O)N[C@H]5C(C)(C)[C@H](Oc6ccc(C#N)c(Cl)c6)C5(C)C)cn4)CC3)c(F)c2)c2c(sc(C)c2C)-n2c(C)nnc21 [Compound I-76] | 500 to 1500 | 500 to 1500 | < 500 |
| CCNC(=O)C[C@@H]1N=C(c2ccc(OCCCN(C)c3ncc(C(=O)N[C@H]4C(C)(C)[C@H](Oc5ccc(C#N)c(Cl)c5)C4(C)C)cn3)cc2)c2c(sc(C)c2C)-n2c(C)nnc21 [Compound I-81] | 500 to 1500 | 500 to 1500 | < 500 |
| CCNC(=O)C[C@@H]1N=C(c2ccc(OCCCC#Cc3ncc(C(=O)N[C@H]4C(C)(C)[C@H](Oc5ccc(C#N)c(Cl)c5)C4(C)C)cn3)cc2)c2c(sc(C)c2C)-n2c(C)nnc21 [Compound I-83] | 500 to 1500 | 500 to 1500 | < 500 |
| CCNC(=O)C[C@@H]1N=C(c2ccc(Oc3ncc(C(=O)N[C@H]4C(C)(C)[C@H](Oc5ccc(C#N)c(Cl)c5)C4(C)C)cn3)cc2)c2c(sc(C)c2C)-n2c(C)nnc21 [Compound I-84] | 1500 to 3000 | 1500 to 3000 | 500 to 1500 |
| CCNC(=O)C[C@@H]1N=C(c2ccc(OC3CCN(C4CCN(c5ncc(C(=O)N[C@H]6C(C)(C)[C@H](Oc7ccc(C#N)c(Cl)c7)C6(C)C)cn5)CC4)C3)cc2)c2c(sc(C)c2C)-n2c(C)nnc21 (stereo partly drawn) [Compound I-85] | < 500 | > 3000 | < 500 |
| CCNC(=O)C[C@@H]1N=C(c2ccc(OCCCCc3ncc(C(=O)N[C@H]4C(C)(C)[C@H](Oc5ccc(C#N)c(Cl)c5)C4(C)C)cn3)cc2)c2c(sc(C)c2C)-n2c(C)nnc21 [Compound I-86] | 500 to 1500 | 1500 to 3000 | < 500 |
